Experimental data: patent US9249129B2, “Morpholino substituted urea derivatives as mTOR inhibitors” (CELLZOME LIMITED, priority 2010, dated 2016)

Assays:
Assay in all cases: kinobeads assay with mass spectrometry detection of kinases (kinase selectivity profile)
Type in all cases: binding
kinases (kinome) [1] = molecular target: T1, kinases (kinome) (Homo sapiens, UniProt P29320); details: EphA3 (TK), IPI00298105
T1 construct: determined in kinobeads assays with mass spectrometry detection of kinases as described previously; endogenous in cells; host or cells: cell lysate
T1 sequence (P29320 21-983): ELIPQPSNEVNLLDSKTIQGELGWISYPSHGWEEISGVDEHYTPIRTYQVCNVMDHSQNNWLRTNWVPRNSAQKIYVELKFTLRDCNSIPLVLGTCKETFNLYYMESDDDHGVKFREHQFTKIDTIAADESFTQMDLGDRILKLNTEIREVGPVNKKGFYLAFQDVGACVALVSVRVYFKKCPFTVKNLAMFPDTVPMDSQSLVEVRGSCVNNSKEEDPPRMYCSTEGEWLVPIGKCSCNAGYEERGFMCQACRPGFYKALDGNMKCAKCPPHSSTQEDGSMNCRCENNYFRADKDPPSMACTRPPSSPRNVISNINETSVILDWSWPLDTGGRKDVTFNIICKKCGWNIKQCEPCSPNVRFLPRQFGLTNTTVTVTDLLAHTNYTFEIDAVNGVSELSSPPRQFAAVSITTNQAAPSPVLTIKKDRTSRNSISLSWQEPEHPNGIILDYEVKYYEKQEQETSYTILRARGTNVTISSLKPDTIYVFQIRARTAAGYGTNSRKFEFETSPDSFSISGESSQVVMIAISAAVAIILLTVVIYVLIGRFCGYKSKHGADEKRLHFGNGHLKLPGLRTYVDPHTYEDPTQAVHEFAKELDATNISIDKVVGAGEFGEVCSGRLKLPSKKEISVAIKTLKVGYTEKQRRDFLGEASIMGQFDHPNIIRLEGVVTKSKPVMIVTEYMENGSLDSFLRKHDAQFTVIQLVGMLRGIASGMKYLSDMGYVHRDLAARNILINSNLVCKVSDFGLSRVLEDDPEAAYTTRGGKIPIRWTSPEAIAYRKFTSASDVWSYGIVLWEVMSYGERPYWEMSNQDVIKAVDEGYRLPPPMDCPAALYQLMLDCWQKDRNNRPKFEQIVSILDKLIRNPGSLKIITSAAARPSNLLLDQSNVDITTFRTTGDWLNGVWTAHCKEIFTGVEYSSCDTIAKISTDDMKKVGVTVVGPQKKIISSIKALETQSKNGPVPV
Source text: (§1) The protein kinase complement of the human genome (the kinome) was described previously (Manning et al., 2002. Science 298(5600):1912-1934). Sequence accession numbers are defined by the International Protein Index (IPI) (Kersey et al., 2004. Proteomics 4(7):1985-1988).

kinases (kinome) [2] = molecular target: T2, kinases (kinome) (Homo sapiens, UniProt Q13535); details: ATR (Atypical), IPI00412298; 0.1 μM ranges
T2 construct: determined in kinobeads assays with mass spectrometry detection of kinases as described previously; endogenous in cells; host or cells: cell lysate
Source text: as §1

kinases (kinome) [3] = molecular target: T3, kinases (kinome) (Homo sapiens, UniProt Q99683); details: MAP3K5 (STE), IPI00412433
T3 construct: determined in kinobeads assays with mass spectrometry detection of kinases as described previously; endogenous in cells; host or cells: cell lysate
T3 sequence (Q99683 1-1374): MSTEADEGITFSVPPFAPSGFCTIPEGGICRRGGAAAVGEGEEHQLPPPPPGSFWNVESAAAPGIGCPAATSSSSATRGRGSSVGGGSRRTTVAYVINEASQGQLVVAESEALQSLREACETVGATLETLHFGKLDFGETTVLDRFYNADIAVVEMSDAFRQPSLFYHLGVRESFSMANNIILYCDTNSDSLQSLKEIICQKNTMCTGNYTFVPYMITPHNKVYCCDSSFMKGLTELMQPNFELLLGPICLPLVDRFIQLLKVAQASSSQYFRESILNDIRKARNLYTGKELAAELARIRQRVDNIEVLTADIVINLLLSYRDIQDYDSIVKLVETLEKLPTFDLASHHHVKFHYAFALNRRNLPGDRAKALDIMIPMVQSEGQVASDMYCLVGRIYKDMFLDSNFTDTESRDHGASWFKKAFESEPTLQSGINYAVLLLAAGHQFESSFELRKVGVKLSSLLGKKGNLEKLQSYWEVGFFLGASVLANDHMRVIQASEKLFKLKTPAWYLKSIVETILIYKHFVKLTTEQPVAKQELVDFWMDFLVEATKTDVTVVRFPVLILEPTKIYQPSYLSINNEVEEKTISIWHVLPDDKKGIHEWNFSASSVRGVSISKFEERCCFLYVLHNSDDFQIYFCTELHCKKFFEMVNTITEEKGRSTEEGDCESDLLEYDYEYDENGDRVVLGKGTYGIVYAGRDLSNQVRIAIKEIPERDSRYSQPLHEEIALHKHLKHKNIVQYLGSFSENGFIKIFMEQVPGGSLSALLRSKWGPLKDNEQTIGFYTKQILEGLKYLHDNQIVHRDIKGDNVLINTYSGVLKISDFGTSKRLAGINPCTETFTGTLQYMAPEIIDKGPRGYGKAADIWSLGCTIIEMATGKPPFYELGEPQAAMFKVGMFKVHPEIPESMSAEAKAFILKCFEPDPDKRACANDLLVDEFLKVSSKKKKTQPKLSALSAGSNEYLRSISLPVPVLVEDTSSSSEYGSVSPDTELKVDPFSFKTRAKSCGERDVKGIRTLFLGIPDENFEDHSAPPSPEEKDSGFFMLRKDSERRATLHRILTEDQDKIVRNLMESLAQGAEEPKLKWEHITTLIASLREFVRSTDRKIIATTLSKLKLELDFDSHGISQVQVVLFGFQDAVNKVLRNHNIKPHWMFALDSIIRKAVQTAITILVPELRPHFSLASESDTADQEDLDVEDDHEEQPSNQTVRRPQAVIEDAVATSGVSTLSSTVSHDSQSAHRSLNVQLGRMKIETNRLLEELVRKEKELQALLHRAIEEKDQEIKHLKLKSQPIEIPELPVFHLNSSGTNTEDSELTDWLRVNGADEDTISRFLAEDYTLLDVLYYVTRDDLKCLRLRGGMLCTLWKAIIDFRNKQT
Source text: as §1

kinases (kinome) [4] = molecular target: T4, kinases (kinome) (Homo sapiens, UniProt P49760); details: CLK2 (CMGC), IPI00028071
T4 construct: determined in kinobeads assays with mass spectrometry detection of kinases as described previously; endogenous in cells; host or cells: cell lysate
Source text: as §1

T4 sequence (P49760 whole entry): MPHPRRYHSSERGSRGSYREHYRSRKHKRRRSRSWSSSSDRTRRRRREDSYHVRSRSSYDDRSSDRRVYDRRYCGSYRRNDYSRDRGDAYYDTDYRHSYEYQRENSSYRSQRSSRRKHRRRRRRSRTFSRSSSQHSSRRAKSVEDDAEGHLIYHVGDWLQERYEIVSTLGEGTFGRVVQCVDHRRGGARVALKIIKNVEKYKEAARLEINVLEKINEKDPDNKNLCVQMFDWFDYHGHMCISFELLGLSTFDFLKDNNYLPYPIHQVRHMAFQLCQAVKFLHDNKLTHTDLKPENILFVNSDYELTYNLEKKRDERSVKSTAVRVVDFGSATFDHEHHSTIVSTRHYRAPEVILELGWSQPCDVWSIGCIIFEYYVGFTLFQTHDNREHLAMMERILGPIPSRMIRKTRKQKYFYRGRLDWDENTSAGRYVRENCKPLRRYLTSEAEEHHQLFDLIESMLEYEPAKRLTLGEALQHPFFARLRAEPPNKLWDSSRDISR
T2 sequence (Q13535 whole entry): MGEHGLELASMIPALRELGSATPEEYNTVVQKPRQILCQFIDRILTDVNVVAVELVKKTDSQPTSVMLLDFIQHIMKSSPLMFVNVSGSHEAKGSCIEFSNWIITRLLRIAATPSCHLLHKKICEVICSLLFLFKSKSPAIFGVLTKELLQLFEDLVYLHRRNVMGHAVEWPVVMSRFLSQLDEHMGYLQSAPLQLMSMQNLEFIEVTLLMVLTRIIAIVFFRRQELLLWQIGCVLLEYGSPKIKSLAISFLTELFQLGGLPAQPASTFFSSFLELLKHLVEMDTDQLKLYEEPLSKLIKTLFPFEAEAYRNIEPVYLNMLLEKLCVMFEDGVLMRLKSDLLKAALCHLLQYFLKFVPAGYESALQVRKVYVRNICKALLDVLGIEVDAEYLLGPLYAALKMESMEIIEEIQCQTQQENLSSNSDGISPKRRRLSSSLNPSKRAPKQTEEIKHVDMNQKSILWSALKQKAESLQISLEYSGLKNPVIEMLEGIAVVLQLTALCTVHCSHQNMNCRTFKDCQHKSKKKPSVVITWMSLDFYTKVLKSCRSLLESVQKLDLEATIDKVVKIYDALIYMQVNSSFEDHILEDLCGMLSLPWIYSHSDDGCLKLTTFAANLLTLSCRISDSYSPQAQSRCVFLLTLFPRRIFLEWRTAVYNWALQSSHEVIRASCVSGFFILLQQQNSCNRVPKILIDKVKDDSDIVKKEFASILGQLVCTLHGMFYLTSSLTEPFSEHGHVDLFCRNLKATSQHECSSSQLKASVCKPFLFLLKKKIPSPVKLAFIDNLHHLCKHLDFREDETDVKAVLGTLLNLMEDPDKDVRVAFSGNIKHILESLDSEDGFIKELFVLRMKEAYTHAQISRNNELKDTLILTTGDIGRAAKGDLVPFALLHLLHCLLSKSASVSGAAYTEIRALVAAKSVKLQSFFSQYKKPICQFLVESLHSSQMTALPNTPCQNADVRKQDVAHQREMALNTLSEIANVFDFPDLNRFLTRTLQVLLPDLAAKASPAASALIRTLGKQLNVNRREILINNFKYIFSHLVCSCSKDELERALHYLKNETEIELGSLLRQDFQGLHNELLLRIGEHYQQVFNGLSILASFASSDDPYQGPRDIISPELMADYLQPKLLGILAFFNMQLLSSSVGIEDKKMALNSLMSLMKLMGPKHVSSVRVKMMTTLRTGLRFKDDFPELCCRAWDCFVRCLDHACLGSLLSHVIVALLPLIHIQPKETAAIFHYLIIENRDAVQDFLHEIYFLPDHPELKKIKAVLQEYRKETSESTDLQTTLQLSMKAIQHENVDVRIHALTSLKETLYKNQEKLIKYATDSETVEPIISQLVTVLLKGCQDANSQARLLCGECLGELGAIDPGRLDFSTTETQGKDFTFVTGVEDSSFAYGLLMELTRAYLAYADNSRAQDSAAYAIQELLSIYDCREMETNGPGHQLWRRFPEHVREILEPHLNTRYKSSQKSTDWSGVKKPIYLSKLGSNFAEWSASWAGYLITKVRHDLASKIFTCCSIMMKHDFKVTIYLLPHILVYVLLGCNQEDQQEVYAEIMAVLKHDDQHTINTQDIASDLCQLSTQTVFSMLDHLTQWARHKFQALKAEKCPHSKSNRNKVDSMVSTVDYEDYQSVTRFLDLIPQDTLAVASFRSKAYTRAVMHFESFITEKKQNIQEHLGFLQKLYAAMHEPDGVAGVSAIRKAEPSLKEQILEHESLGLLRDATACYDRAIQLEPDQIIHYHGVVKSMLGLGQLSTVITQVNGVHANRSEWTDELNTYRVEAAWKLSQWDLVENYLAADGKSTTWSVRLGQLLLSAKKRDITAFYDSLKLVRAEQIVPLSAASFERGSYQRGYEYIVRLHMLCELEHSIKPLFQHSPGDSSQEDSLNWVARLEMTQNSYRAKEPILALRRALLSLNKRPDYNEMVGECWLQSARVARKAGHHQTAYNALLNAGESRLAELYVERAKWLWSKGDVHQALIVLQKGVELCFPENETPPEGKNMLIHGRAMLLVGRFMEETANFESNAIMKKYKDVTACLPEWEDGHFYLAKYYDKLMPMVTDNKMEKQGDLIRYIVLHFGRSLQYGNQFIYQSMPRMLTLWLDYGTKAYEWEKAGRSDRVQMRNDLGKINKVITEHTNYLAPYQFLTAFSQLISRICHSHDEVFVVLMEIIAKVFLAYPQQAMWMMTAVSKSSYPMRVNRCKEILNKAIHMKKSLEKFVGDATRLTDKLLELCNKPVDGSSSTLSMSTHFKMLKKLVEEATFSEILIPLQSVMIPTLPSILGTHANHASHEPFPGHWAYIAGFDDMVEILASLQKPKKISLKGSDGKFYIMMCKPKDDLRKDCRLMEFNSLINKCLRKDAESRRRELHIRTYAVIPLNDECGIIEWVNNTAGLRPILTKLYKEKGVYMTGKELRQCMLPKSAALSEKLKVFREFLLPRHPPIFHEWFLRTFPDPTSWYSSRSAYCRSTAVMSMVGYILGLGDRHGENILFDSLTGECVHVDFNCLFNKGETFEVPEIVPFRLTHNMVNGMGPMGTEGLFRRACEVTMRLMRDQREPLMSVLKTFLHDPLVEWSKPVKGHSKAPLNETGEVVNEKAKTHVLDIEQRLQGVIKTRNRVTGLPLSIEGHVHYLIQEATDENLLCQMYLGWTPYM

Row | Structure (SMILES) | IC50 (kinases (kinome) [1]) | IC50 (kinases (kinome) [2]) | IC50 (kinases (kinome) [3]) | IC50 (kinases (kinome) [4])
1 | C[C@H]1COCCN1c1nc(-c2ccc(NC(=O)NC3CC3)cc2)cc(-c2ccccc2S(C)(=O)=O)n1 [Example 4, (S)-1-cyclopropyl-3-(4-(2-(3-methylmorpholino)-6-(2-(methylsulfonyl)phenyl)pyrimidin-4-yl)phenyl)urea] | > 10 µM | > 10 µM | > 10 µM | –
2 | CCNC(=O)Nc1ccc(-c2cc(-c3ccccc3C#N)nc(N3CCOC[C@@H]3C)n2)cc1 [Example 8, (S)-1-(4-(6-(2-cyanophenyl)-2-(3-methylmorpholino)pyrimidin-4-yl)phenyl)-3-ethylurea] | > 10 µM | – | – | > 10 µM
3 | C[C@H]1COCCN1c1nc(-c2ccc(NC(=O)NC3CC3)cc2)cc(-c2cc(F)ccc2S(C)(=O)=O)n1 [Example 40, (S)-1-cyclopropyl-3-(4-(6-(5-fluoro-2-(methylsulfonyl)phenyl)-2-(3-methylmorpholino)pyrimidin-4-yl)phenyl)urea] | > 10 µM | 1.1 to 1.2 µM | > 10 µM | –
4 | C[C@H]1COCCN1c1cc(-c2ccccn2)nc(-c2ccc(NC(=O)NCCO)cc2)n1 [Example 43, (S)-1-(2-hydroxyethyl)-3-(4-(4-(3-methylmorpholino)-6-(pyridin-2-yl)pyrimidin-2-yl)phenyl)urea] | > 10 µM | > 10 µM | – | > 10 µM
5 | C[C@H]1COCCN1c1nc(-c2ccc(NC(=O)NC3CC3)cc2)cc(-c2cccnc2S(C)(=O)=O)n1 [Example 46, (S)-1-cyclopropyl-3-(4-(2-(3-methylmorpholino)-6-(2-(methylsulfonyl)pyridin-3-yl)pyrimidin-4-yl)phenyl)urea] | > 10 µM | > 10 µM | – | > 10 µM
6 | C[C@H]1COCCN1c1nc(-c2ccc(NC(=O)N[C@H]3CCC[C@@H]3O)cc2)cc(-c2cc(F)ccc2S(C)(=O)=O)n1 [Example 76, 1-(4-(6-(5-fluoro-2-(methylsulfonyl)phenyl)-2-((S)-3-methylmorpholino)pyrimidin-4-yl)phenyl)-3-((1S,2S)-2-hydroxycyclopentyl)urea] | – | > 10 µM | > 10 µM | –
